Data on two compounds can be found in patent publication US8206943B1, “Assay for PCSK9 inhibitors” (Schering Corporation, priority 2008, dated 2012).

Test [1] concerns the target T1, PCSK9 (Homo sapiens, UniProt Q8NBP7). In words: HPLC / chromatographic analysis of PCSK9 autoproteolysis (cis-cleavage) in the presence of inhibitors. The format is biochemical. Further details: Pro-Cat-Domain Polypeptide; initiator Met (N); made in house; host or cells: E. coli BL-21(DE3). As for the experimental part:
Unprocessed PCSK9 (18 μM for NanoStream experiment, 8 μM for BioRad Experion experiment) was incubated at 25° C. in 25 mM Hepes pH 7.5, 150 mM NaCl, 10% glycerol and 1 mM EDTA (4% DMSO may be added to uninhibited control assays when run in conjunction with assays that include inhibitors dissolved in DMSO). At the designated time points (t=0 minutes, 60 minutes and 240 minutes), aliquots from the 18 μM incubation were quenched by adding guanidine hydrochloride to a concentration of 6M, then the quenched reaction was applied (1 μl) to NanoStream Brio #4207007 (300 Å, C4) chromatography cassette. Following gradient elution, from the cassette, using 0.1% TFA in water (solvent A) and 0.085% TFA in acetonitrile (solvent B), the peaks were quantitated by absorbance at 214 nm.
Furthermore, a chromatographic analysis of PCSK9 autoproteolysis was performed in the presence of various inhibitors. This assay was used to determine the effect of the inhibitors Tris (2-carboxyethyl) phosphine (TCEP; a reducing agent) and tosyl-L-lysine chloromethyl ketone (TLCK) on the PCSK9 autoproteolysis reaction. In these assay, the ProCat peak is uncleaved PCSK9 whereas the Pro- and Cat-peaks indicate generation of the Pro- and Cat-domains, which indicates autoproteolytic cleavage by PCSK9. FIG. 5(a) sets forth the data in the assay wherein the Tris (2-carboxyethyl) phosphine inhibitor was assayed. […] In the control-A experiment, Tris (2-carboxyethyl) phosphine was added at t=zero minutes of a 6 hour incubation. Tris (2-carboxyethyl) phosphine is a disulfide reducing agent that is not oxidized by air.
In the control-B experiment set forth in FIG. 5(a), Tris (2-carboxyethyl) phosphine was added at the end of a 6 hour incubation. The appearance of the Pro- and Cat-domains in the control B assay indicate the occurrence of autoproteolysis.
FIG. 5(b) sets forth data wherein inhibition mediated by TCEP (Tris (2-carboxyethyl) phosphine) and TLCK (tosyl-L-lysine chloromethyl ketone) are compared, side-by-side, in an autoproteolysis assay. […] The inhibitors are added at time zero. TCEP was added at 5 mM to quench the reaction; this sample serves as the 100% inhibited control—Control A in FIG. 5. TLCK was added at a concentration of 77 μM.
An HPLC analysis was performed on unprocessed PCSK9. A sample containing 12 uM unprocessed PCSK9 in 25 mM Hepes buffer pH 7.5, 150 mM NaCl, 1 mM EDTA, 10% glycerol and 4.0% DMSO was incubated at 25° C. […] One microliter of the reaction mixture was analyzed directly by reversed phase-HPLC using Express-LC100, a micro fluidic chromatographic system from Eksigent. […] The flow rate was 12 uI per minute and the sample components were detected at 214 nm. The amount of ProCat polypeptide was calculated as % of sum of peak areas corresponding to Pro-, Cat- and ProCat domains. […]
Target sequence in this assay (Q8NBP7 with tags, fused parts or gaps): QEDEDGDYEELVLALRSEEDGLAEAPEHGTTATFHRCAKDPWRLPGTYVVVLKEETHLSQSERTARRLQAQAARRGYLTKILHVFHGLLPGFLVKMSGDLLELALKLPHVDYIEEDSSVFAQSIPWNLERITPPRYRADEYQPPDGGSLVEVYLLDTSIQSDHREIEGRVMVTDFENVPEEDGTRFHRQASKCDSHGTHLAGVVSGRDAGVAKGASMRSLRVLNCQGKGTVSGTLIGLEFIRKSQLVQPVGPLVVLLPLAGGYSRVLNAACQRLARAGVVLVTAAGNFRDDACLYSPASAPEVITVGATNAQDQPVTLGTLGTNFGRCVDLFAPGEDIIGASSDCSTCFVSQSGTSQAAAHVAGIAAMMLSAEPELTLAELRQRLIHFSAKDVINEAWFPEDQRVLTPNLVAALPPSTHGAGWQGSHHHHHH

The target in test [2] is T1, PCSK9. The experiment in a line: Cis-cleavage assay for PCSK9 using immuno-detection (ELISA of remaining FLAG-tag on HisSorb plate). It counts as biochemical. Further details: A DNA fragment corresponding to residues 31-454 of human PCSK9 (Pro-Cat domains) was made synthetically; made in house; host or cells: E. coli (pDest14 vector; expressed as for the first construct, BL-21(DE3)). The following applies: 100 uM, 30° C. for 4 hours. As for the experimental part:
This example describes an assay to monitor the cis-cleavage of human PCSK9 using immuno-detection methods. A construct of human PCSK9 was created to have an N-terminal FLAG-tag and a (His)6-tag on the C-terminus. After incubation, the reaction was quenched and the domains were disassociated with 4.0 M urea. The protein was transferred to and bound, via the His-tag, to a HisSorb plate (Qiagen; Valencia, Calif.; nickel-nitrilotriacetic acid (Ni-NTA) coated plate). The amount of cleavage was determined by measuring the remaining FLAG-tag using standard ELISA techniques. Using this method, the sensitivity of the assay was increased at least 1000-fold over gel-based techniques and the micro-titer format makes the assay compatible with high throughput screening methods.
Cloning and expression. A DNA fragment corresponding to residues 31-454 of human PCSK9 (Pro-Cat domains) was made synthetically (GeneScript Corp., Piscataway, N.J.). Additional bases were included to add a Not1 restriction site and a Shine-Dalgarno initiation sequence to the 5′-end. A GS-(His)6 tag followed by a Asc1 restriction site was added to the 3′-end. A Gateway vector of PCSK9 was produced as FLAG-Pro-Cat(454)-GS-(His)6 by restriction digestion/ligation into the pDest14 expression vector. Expression and purification of the protein was done as previously described with aliquots frozen at −80° C. […]
Target sequence in this assay (Q8NBP7 31-454): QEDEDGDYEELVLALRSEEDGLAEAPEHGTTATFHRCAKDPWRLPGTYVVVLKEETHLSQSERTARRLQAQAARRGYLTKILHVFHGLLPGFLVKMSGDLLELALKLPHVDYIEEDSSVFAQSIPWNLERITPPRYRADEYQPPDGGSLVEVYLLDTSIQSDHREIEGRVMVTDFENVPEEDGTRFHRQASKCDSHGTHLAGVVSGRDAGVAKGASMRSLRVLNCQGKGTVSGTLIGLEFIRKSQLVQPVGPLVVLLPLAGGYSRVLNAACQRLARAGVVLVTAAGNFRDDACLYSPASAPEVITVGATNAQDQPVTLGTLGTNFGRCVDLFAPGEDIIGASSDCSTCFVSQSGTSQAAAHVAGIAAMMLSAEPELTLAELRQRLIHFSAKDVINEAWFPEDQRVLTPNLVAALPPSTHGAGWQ

[3] abbreviates: 77 μM, added at time zero, FIG. 5(b).

For the compound `O=C(O)CCP(CCC(=O)O)CCC(=O)O` [TCEP, Tris (2-carboxyethyl) phosphine], the “inhibition of cis-cleavage activity” value at PCSK9 [1] (5 mM, added at t=zero minutes of a 6 hour incubation (control-A), FIG. 5(a)) is “complete inhibition”.
Regarding “tosyl-L-lysine chloromethyl ketone [TLCK]”, at PCSK9 [1] (77 uM, 6 hour incubation at 25° C., 12 uM unprocessed PCSK9), the “inhibition of cis-cleavage reaction” value was “significant inhibition”. Besides, on PCSK9 [1] (setting [3]), the “Pro- and Cat-domains in comparison to Control-A (TCEP)” value is recorded as “slight increase”; the “ProCat peak (uncleaved PCSK9) in comparison to Control-A (TCEP)” value is given as “small decrease”. Further, at PCSK9 [2], the “inhibition of cis-cleavage (negative control)” value worked out at 100%.
